Source: article PMC6315694, “Synthesis of Pseudellone Analogs and Characterization as Novel T-type Calcium Channel Blockers” (Marine Drugs, 2018)

How the values were obtained:
N-type CaV2.2 = biological target: T1, N-type CaV2.2 (Homo sapiens, UniProt Q00975); test: HVA calcium channel FLIPR assay, N-type (SH-SY5Y cells); type: cell-based; conditions: SH-SY5Y, 10 µM nifedipine present, N = 3, mean ± SEM, read-out: IC50 CaV2.2 (HVA CaVs)
T1 construct: endogenous in cells
Method: (§1) The human embryonic kidney 293 (HEK 293) cell lines (from Emmanuel Bourinet, Montpellier, France) stably expressing CaV3.2 or CaV3.3 were cultured under 5% carbon dioxide at 37 °C in Dulbecco’s Modified Eagle Medium (DMEM) Glutamax (Gibco, Life Technologies, Carlsbad, CA, USA) supplemented with 10% (v/v) fetal bovine serum (FBS), 100 U/mL penicillin, 100 μg/mL streptomycin (Gibco, Life Technologies), and 750 μg/mL geneticin (G418) (Gibco, Life Technologies). The Chinese Hamster Ovary (CHO) cell lines (Emmanuel Bourinet, Montpellier, France) expressing CaV3.1 were cultured under 5% carbon dioxide at 37 °C in Alpha Minimum Essential Media (MEM) Glutamax (Gibco, Life Technologies), supplemented with 10% (v/v) fetal bovine serum (FBS) and 300 μg/mL geneticin (G418) (Gibco, Life Technologies). The human neuroblastoma SH-SY5 Y cells (Victor Diaz, Goettingen, Germany) were cultured under 5% carbon dioxide at 37 °C in RPMI 1640 antibiotic-free medium (Invitrogen, Carlsbad, CA, USA), supplemented with 15% FBS and 2 mM GlutaMAX™ (Invitrogen). D-PBS (Gibco, Life Technologies) was used to wash the cells, and 0.25% Trypsin-EDTA (Gibco, Life Technologies) was used to detach cells from the flask surface. They were split in a ratio of 1:5 (ideally 1000 cells/cm^2) when they reached 70%–80% confluence (every 2–3 days). Transiently transfected CaV3.1HEK293 T cells were used in FLIPR Assays. HEK 293 T cells were cultured under 5% carbon dioxide at 37 °C in DMEM supplemented with 10% (v/v) FBS. D-PBS was used to wash the cells, and 0.25% Trypsin-EDTA was used to detach cells from the flask surface. The cells were split and seeded at 6 million cells per T175 flask, to reach 70%–80% confluence after 24 h. The next day, 12 μg DNA of human CaV3.1 was incubated in 900 μL serum-free DMEM with 36 μL FuGENE HD transfection reagent (Promega Corporation, Madison, WI, US) (1:3 DNA/Fugene ratio) for 20 min, and then the mixture was added into the cell flask slowly, drop by drop. After the transfection, the cells were cultured under 5% carbon dioxide at 37 °C for 24 h and then moved to a 28 °C incubator.
SH-SY5Y cells were seeded into 384-well black wall clear bottom plates at a density of 15,000 cells per well, resulting in 90%–95% confluence after 24 h. The media were then removed from the wells and replaced with 20 μL of 10% calcium 4 dye (Molecular Devices) in physiological salt solution (PSS) (containing 5.9 mM KCl, 1.4 mM MgCl2, 10 mM HEPES, 1.2 mM NaH2 PO4, 5 mM NaHCO3, 140 mM NaCl, 11.5 mM glucose, and 1.8 mM CaCl2, pH 7.4) with 0.1% BSA. […] Positive control on the first reagent plate contained 15 μL of PSS (0.1% BSA), whereas PSS (0.1% BSA) containing 1 µM CVID and 10 µM nifedipine (final concentration) was used as a negative control. The fluorescence readings were recorded and converted as described previously, and agonist containing 90 mM KCl + 5 mM CaCl2 was used in the second addition.
Data were plotted and analyzed using GraphPad Prism v7.0 (GraphPad Software Inc., San Diego, CA, USA). A four-parameter logistic Hill equation with variable Hill coefficients was fitted to the data for concentration-response curves. Data are means ± SEM of n independent experiments. Statistical analysis was performed with a paired Student’s t-test with statistical significance at p < 0.05.

[1] = system: L-type calcium channel (CaV1); test: HVA calcium channel FLIPR assay, L-type (SH-SY5Y cells); type: cell-based, human; conditions: 1 µM CVID present, N = 3, mean ± SEM, read-out: IC50 CaV1 (HVA CaVs)
Method: as §1
SH-SY5Y cells were seeded into 384-well black wall clear bottom plates at a density of 15,000 cells per well, resulting in 90%–95% confluence after 24 h. […] The fluorescence readings were recorded and converted as described previously, and agonist containing 90 mM KCl + 5 mM CaCl2 was used in the second addition.
(§2) Data were plotted and analyzed using GraphPad Prism v7.0 (GraphPad Software Inc., San Diego, CA, USA). […]

[2] = biological target: T2, recombinant hCaV3.1 channels (Homo sapiens, UniProt O43497); test: Whole-cell patch-clamp QPatch 16 X, CaV3.1; type: cell-based
T2 construct: host or cells: probably the CHO line expressing CaV3.1 (inferred: the transient HEK293T cells are assigned to FLIPR)
T2 sequence (O43497 whole entry): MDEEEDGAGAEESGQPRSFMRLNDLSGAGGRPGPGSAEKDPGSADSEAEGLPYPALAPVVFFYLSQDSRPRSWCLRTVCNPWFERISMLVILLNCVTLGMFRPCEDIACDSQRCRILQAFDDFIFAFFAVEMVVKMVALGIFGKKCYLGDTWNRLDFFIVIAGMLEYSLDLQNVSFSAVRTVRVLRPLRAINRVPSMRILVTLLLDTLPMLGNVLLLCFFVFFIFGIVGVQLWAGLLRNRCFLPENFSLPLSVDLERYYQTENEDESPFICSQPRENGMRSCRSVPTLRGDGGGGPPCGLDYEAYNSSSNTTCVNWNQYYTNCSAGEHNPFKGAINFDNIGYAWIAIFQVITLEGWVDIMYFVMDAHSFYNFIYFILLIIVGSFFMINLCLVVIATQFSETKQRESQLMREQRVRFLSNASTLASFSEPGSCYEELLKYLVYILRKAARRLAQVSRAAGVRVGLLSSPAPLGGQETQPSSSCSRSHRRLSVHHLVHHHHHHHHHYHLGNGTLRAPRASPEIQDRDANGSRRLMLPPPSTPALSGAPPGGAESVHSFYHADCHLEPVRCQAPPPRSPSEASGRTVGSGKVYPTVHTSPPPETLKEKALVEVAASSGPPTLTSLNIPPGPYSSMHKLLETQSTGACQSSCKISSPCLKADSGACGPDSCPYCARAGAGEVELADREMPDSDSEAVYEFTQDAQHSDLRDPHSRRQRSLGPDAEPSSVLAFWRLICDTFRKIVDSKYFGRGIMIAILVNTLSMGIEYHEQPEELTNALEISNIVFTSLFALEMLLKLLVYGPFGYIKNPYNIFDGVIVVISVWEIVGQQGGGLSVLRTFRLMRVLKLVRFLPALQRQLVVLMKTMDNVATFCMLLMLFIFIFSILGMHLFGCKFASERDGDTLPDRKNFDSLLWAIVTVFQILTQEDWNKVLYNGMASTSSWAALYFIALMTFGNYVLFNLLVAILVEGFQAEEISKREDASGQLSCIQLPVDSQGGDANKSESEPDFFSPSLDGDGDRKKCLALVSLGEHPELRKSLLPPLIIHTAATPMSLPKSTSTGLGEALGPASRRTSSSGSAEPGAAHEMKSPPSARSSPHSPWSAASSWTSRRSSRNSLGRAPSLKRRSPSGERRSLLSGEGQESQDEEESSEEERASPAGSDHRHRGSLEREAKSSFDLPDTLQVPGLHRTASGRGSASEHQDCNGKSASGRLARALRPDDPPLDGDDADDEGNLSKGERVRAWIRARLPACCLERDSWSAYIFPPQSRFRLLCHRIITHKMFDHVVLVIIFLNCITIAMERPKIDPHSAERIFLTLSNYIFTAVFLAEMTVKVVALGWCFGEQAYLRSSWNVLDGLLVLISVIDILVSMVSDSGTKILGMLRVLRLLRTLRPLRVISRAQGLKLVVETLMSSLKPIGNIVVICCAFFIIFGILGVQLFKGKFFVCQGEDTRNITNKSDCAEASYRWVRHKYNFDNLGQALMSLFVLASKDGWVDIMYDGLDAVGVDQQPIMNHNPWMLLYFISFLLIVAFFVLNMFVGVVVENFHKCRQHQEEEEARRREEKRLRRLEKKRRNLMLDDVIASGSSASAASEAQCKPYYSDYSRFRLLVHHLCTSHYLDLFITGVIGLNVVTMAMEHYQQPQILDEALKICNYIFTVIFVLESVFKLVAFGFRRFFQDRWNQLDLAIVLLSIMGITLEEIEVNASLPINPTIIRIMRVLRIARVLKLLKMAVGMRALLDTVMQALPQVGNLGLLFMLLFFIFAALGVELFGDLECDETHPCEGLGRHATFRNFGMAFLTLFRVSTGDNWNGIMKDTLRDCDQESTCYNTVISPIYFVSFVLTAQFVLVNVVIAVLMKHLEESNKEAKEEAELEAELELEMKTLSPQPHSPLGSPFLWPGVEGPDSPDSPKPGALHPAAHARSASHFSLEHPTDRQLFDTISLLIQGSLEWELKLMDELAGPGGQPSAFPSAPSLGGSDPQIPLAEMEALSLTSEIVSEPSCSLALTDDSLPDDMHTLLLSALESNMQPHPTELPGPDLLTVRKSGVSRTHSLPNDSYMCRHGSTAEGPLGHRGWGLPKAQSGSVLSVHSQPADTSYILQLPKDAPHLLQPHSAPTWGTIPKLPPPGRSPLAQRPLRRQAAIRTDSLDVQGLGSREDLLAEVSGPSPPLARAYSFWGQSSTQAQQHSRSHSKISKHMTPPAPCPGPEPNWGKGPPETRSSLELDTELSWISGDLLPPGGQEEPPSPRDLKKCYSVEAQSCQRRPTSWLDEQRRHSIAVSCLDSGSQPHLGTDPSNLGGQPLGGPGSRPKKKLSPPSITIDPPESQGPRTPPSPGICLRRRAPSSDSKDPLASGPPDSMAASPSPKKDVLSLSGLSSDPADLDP
Method: as §1, with “After the transfection, the cells were cultured under 5% carbon dioxide at 37 °C for 24 h and then moved to a 28 °C incubator.” left out
as §2

SMILES: COC(=O)[C@H](Cc1c[nH]c2ccccc12)NC(=O)C(C)(c1c[nH]c2ccccc12)c1c[nH]c2ccccc12 [Compound 3, Methyl (2,2-di(1H-indol-3-yl)propanoyl)-L-tryptophanate]
- IC50 (N-type CaV2.2): 31.3 ± 3.4 µM
- IC50 [1]: 39.8 ± 3.98 µM
- Potency for CaV3.1-activated currents relative to CaV3.1 window currents ([2]; QPatch versus FLIPR, better for activated currents): > 7 fold
- Emax ([2]; QPatch whole-cell, partial block, read-out: Emax value, block of CaV3.1 current): 82.8 ± 2.55%
- Voltage-dependence of steady-state inactivation of CaV3.1, in words ([2]; QPatch, in the presence of compound): not significantly shifted
